Here are results for 1 compound from ChEMBL document CHEMBL6103628, “Structural Optimization of Covalent Inhibitors for Deubiquitinase ChlaDUB1 of Chlamydia trachomatis as Antibiotic Agents” (J Med Chem, 2025).

The target in data set [1] is T1, Deubiquitinase and deneddylase Dub1 (Chlamydia trachomatis serovar L2 (strain ATCC VR-902B / DSM 19102 /434/Bu), UniProt B0B9A0).
T1 sequence (B0B9A0 whole entry): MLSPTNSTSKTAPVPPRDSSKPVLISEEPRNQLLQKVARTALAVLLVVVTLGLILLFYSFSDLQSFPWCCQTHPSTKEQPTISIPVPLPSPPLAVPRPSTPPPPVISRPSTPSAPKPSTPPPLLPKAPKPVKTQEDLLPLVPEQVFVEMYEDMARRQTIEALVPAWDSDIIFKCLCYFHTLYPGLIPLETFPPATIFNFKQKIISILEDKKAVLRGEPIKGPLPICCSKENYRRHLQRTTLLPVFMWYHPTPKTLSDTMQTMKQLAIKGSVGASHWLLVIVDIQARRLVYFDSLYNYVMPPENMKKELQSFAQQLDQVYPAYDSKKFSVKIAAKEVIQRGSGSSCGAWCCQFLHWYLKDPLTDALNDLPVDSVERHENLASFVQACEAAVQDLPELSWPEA
In words: Inhibition of recombinant Chlamydia trachomatis DUB1 (130 to 401 residues) using Ub-Rh110Gly as fluorogenic substrate incubated for 60 mins by enzymatic analysis. The settings on record: read-out: IC50.

Data set [2] has as its target T2, Ubiquitin carboxyl-terminal hydrolase 25 (Homo sapiens) (UniProt Q9UHP3).
T2 sequence (whole entry): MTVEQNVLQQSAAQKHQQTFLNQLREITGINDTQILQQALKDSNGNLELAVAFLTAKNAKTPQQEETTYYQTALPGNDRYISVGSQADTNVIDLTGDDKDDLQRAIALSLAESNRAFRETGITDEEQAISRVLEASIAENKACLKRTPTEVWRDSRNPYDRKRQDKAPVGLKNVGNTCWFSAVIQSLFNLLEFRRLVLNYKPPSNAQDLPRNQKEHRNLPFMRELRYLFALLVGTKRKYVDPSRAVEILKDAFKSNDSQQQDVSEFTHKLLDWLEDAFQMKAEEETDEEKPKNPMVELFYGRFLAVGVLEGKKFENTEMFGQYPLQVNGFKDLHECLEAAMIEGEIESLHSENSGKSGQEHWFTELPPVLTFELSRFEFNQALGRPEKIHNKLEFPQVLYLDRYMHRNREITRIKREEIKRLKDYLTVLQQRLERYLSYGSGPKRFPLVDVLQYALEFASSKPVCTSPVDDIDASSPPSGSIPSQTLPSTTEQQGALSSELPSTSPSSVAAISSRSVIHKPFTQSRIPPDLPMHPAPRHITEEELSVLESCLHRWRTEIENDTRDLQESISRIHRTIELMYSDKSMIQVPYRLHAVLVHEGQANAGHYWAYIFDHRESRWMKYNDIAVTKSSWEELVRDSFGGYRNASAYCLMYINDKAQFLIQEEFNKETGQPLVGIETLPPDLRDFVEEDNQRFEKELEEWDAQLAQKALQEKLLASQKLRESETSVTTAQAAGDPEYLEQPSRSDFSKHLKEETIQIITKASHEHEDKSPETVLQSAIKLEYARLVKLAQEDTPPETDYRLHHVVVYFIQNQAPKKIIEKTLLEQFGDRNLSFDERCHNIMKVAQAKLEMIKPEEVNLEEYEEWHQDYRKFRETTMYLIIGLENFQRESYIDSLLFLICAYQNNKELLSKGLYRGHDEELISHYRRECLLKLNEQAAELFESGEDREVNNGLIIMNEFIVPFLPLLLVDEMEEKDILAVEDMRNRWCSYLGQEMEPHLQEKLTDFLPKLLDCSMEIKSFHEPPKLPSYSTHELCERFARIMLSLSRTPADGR
In words: Inhibition of human USP25 at 35 uM relative to control.

For data set [3], the target named is Ubiquitin carboxyl-terminal hydrolase 7 (Homo sapiens) (UniProt Q93009). In words: Inhibition of human USP7 at 35 uM relative to control.
Data set [4] addresses T3, OTU domain-containing protein 3 (Homo sapiens) (UniProt Q5T2D3).
T3 sequence (whole entry): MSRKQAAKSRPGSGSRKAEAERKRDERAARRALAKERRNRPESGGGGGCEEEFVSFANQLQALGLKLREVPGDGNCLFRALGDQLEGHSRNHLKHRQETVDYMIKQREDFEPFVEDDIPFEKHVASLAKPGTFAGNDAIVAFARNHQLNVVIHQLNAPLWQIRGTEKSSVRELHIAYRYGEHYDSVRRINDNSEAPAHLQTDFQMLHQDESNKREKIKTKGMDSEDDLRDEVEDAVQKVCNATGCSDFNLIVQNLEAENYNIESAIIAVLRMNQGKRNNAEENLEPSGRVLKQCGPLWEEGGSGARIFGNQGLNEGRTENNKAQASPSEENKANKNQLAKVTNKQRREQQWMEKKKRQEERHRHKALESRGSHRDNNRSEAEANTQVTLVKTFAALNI
In words: Inhibition of human OTUD3 at 35 uM relative to control.

Data set [5] deals with T4, Ubiquitin thioesterase OTUB2 (Homo sapiens) (UniProt Q96DC9).
T4 sequence (whole entry): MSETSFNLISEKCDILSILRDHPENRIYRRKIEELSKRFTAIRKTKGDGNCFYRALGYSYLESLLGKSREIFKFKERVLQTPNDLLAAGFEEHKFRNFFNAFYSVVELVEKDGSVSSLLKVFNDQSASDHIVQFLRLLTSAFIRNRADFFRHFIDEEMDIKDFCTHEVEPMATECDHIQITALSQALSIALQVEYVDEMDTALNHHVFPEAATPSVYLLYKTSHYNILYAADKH
In words: Inhibition of human OTUB2 at 35 uM relative to control.

Data set [6] concerns the target Ubiquitin carboxyl-terminal hydrolase isozyme L1 (Homo sapiens) (UniProt P09936). In words: Inhibition of human UCHL1 at 35 uM relative to control.
Data set [7] concerns the target T5, Deubiquitinase and deneddylase Dub2 (Chlamydia trachomatis, UniProt O84875).
T5 sequence (O84875 whole entry): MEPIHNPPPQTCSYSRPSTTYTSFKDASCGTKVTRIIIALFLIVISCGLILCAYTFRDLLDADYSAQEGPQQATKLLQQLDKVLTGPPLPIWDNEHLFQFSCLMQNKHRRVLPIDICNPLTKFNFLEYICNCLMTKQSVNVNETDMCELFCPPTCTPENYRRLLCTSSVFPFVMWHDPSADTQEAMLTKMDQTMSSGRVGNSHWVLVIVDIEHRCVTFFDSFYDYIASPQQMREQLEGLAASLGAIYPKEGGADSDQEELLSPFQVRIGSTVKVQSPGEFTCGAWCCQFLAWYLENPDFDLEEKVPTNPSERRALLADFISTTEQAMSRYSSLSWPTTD
The data set is described as follows: Inhibition of Chlamydia trachomatis DUB2 incubated for 60 mins.

In data set [8] the target is T6, Deubiquitinase and deneddylase Dub2 (Chlamydia trachomatis) (UniProt O84875).
T6 sequence (whole entry): T5 sequence (O84875 whole entry)
The data set is described as follows: Inhibition of Chlamydia trachomatis DUB2 incubated for 60 mins relative to control.

For another data set, the system named is HeLa. In words: Cytotoxicity against human HeLa cells assessed as cell viability at 4 to 256 ug/mL measured after 20 hrs by XTT assay. Format: toxicity, cell-based. The conditions noted are these: dose 4-256 µg/ml.
The next data set relates to HEK293. The data set is described as follows: Cytotoxicity against HEK293 cells assessed as reduction in cell viability upto 64 ug/mL measured after 20 hrs by XTT assay. In kind it is toxicity, cell-based. The settings on record: human, hek293, 20 h, dose < 64 µg/ml.

Sequence of Ubiquitin carboxyl-terminal hydrolase isozyme L1 (Homo sapiens) (P09936 whole entry, looked up): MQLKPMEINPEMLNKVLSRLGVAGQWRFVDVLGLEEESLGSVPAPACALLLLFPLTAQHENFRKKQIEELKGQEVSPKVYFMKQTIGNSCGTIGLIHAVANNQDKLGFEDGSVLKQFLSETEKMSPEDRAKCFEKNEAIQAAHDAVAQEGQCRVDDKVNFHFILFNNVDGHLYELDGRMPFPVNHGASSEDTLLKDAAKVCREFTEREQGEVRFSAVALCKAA
Sequence of Ubiquitin carboxyl-terminal hydrolase 7 (Homo sapiens) (Q93009 whole entry, looked up, the tested form may be a part): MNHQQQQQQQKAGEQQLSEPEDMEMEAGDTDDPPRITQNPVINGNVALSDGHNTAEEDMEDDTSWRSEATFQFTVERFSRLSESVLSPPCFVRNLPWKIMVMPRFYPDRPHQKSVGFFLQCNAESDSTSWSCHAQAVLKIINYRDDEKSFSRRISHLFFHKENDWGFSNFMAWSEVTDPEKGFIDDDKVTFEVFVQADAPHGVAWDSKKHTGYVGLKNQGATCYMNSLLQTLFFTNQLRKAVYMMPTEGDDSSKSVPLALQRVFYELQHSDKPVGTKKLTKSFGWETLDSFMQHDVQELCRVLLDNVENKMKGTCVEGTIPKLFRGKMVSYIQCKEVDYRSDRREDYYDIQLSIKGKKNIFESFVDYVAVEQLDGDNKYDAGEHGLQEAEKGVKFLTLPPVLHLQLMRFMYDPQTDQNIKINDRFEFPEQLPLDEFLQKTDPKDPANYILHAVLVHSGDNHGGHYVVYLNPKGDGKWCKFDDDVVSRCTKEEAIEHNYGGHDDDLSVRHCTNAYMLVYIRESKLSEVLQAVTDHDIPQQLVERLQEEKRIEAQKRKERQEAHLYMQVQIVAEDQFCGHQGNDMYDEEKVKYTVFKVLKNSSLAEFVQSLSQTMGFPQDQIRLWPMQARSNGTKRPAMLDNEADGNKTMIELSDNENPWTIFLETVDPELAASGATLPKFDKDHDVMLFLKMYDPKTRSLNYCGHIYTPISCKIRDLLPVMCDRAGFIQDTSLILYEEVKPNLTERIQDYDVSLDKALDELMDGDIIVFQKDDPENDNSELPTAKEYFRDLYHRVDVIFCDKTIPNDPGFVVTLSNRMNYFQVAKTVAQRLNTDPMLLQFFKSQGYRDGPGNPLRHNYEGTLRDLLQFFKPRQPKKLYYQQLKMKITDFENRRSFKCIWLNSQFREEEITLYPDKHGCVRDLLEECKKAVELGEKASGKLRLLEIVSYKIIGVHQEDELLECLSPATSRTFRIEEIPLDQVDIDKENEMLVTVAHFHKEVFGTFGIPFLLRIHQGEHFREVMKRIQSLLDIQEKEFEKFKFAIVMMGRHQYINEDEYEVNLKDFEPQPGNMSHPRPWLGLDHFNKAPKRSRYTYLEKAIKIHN

Regarding `N#Cc1nccc(C(=O)NCc2nn(C(=O)Cc3ccccc3)c3ccccc23)n1`, the IC50 in [1] stood at 0.97 µM; in data set [7] it was 30 µM. The inhibition in data set [2] was less than 25%; in [3], less than 25%; in [4], less than 25%; in data set [5] it was less than 25%; in [6], less than 25%; in [8], 100%. Also, the Activity entry in the data set on HeLa and in the data set on HEK293 was “Non-toxic” throughout.
